# Results from ChEMBL document CHEMBL2069259, “Preclinical strategy to reduce clinical hepatotoxicity using in vitro bioactivation data for >200 compounds” (Chem Res Toxicol, 2012).
# Experiments:
# [1] = tested on: Liver microsomes; assay: Metabolic stability in human liver microsomes assessed as low signal/noise ratio (S/N of 1 to 10) by measuring GSH adduct formation at 100 uM after 90 mins by HPLC-MS analysis; type: ADME, Microsome; conditions: 1.5 h
# [2] = target: CYP2C19 (Homo sapiens, UniProt P33261); assay: Inhibition of human CYP2C19 assessed as ratio of IC50 in absence of NADPH to IC50 for presence of NADPH using 3-butyryl-7-methoxycoumarin as substrate after 30 mins
# CYP2C19, sequence (P33261 whole entry): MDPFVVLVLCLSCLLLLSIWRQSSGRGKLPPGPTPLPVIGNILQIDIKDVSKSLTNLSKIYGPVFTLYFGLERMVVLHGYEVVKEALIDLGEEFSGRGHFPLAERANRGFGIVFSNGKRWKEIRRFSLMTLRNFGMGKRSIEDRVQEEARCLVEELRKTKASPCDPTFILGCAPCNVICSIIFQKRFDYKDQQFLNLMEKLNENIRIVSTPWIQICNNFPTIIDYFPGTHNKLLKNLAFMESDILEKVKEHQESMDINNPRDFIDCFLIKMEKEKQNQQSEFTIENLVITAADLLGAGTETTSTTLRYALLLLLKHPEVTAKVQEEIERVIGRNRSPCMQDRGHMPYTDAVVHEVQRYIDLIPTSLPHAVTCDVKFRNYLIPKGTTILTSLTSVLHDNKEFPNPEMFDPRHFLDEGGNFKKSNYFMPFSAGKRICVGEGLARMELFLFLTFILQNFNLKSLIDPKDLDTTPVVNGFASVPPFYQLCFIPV
# [3] = tested on: Liver microsomes; assay: Metabolic stability in human liver microsomes assessed as GSH adduct formation at 100 uM after 90 mins by HPLC-MS analysis; conditions: 1.5 h
# [4] = target: T1, CYP3A4 (Homo sapiens, UniProt P08684); assay: Inhibition of human CYP3A4 assessed as ratio of IC50 in absence of NADPH to IC50 for presence of NADPH using diethoxyfluorescein as substrate after 30 mins
# T1 sequence (P08684 whole entry): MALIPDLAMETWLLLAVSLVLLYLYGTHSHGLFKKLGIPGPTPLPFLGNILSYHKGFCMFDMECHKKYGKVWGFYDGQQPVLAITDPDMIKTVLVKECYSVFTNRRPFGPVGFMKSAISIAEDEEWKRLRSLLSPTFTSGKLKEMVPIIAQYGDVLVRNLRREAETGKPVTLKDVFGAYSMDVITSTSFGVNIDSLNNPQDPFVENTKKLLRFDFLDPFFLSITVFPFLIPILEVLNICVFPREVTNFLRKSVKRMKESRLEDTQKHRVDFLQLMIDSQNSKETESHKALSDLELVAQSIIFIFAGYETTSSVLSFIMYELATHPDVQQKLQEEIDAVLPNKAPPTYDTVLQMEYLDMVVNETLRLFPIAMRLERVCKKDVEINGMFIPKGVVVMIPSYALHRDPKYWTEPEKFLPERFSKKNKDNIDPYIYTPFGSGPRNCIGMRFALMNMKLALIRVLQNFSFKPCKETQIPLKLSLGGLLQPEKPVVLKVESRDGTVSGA
# [5] = target: T1, CYP3A4; assay: Inhibition of human CYP3A4 assessed as ratio of IC50 in absence of NADPH to IC50 for presence of NADPH using 7-benzyloxyquinoline as substrate after 30 mins
# [6] = tested on: Liver microsomes; assay: Metabolic stability in human liver microsomes assessed as high signal/noise ratio (S/N of >100) by measuring GSH adduct formation at 100 uM after 90 mins by HPLC-MS analysis; conditions: 1.5 h
# [7] = tested on: Liver microsomes; conditions: human, 1.5 h, 100 µM
# [8] = target: CYP2D6 (Homo sapiens, UniProt P10635); assay: Inhibition of human CYP2D6 assessed as ratio of IC50 in absence of NADPH to IC50 for presence of NADPH using 4-methylaminoethyl-7-methoxycoumarin as substrate after 30 mins
# CYP2D6, sequence (P10635 whole entry): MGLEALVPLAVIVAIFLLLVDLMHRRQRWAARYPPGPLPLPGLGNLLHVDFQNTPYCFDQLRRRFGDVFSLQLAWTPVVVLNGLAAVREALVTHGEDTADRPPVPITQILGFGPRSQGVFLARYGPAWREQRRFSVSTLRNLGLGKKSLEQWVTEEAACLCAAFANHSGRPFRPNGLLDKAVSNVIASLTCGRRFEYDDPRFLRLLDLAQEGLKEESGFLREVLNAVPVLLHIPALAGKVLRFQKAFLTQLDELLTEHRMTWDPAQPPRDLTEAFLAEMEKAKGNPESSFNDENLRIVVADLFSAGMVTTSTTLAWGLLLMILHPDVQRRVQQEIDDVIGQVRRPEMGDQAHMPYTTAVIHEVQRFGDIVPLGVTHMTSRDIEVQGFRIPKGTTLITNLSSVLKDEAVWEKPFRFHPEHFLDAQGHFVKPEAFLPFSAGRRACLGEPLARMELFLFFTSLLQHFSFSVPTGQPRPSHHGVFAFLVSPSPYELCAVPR
# [9] = target: T2, CYP1A2 (Homo sapiens, UniProt P05177); assay: Inhibition of human CYP1A2 assessed as ratio of IC50 in absence of NADPH to IC50 for presence of NADPH using ethoxyresorufin as substrate after 30 mins
# T2 sequence (P05177 whole entry): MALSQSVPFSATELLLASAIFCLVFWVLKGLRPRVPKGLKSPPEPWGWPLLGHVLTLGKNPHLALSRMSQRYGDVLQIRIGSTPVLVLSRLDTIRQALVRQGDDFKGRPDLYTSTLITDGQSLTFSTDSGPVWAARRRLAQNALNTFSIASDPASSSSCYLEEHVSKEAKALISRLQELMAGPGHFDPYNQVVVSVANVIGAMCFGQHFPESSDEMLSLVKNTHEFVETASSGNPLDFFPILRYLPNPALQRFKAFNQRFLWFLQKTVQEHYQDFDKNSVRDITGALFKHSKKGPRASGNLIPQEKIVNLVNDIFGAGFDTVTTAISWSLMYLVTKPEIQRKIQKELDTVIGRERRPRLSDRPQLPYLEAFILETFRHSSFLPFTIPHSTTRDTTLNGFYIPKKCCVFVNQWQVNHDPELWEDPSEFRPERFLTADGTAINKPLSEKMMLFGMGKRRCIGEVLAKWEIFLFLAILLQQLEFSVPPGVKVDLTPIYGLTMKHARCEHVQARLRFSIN
# [10] = probe 4-methylaminoethyl-7-methoxycoumarin
# [11] = probe 3-butyryl-7-methoxycoumarin
smiles,measurement,setting,value
CN1C(C(=O)Nc2ccccn2)=C(O)c2ccccc2S1(=O)=O [PIROXICAM],Stability,[1],Unstable
CC(=O)Oc1ccccc1C(=O)O [ASPIRIN],IC50 shift at 0.5 h,[2],< 2
same,Stability,[3],Stable
CCCc1cc(=O)[nH]c(=S)[nH]1 [PROPYLTHIOURACIL],IC50 shift at 0.5 h,[4],> 5
same,IC50 shift at 0.5 h,[5],> 5
same,Stability,[6],Unstable
COc1cccc2c1C(=O)c1c(O)c3c(c(O)c1C2=O)C[C@@](O)(C(=O)CO)C[C@@H]3O[C@H]1C[C@H](N)[C@H](O)[C@H](C)O1 [DOXORUBICIN],IC50 shift at 0.5 h,[4],2
same,IC50 shift at 0.5 h,[5],> 5
same,Stability,[7],Unstable
O=C1CCc2cc(OCCCCc3nnnn3C3CCCCC3)ccc2N1 [CILOSTAZOL],IC50 shift at 0.5 h,[4],2
same,IC50 shift at 0.5 h,[5],2
same,Stability,[3],Stable
COc1ccc(CN(CCN(C)C)c2ccccn2)cc1 [PYRILAMINE],IC50 shift at 0.5 h,[8]; [10],2
same,Stability,[7],Unstable
C[C@]12C=CC(=O)C=C1CC[C@@H]1[C@@H]2C(=O)C[C@@]2(C)[C@H]1CC[C@]2(O)C(=O)CO [PREDNISONE],Stability,[1],Unstable
NNC(=O)c1ccncc1 [ISONIAZID],IC50 shift at 0.5 h,[2],> 5
same,IC50 shift at 0.5 h,[8],> 5
same,IC50 shift at 0.5 h,[4],> 5
same,IC50 shift at 0.5 h,[5],> 5
same,Stability,[3],Stable
CC(=O)N1CCN(c2ccc(OCC3COC(Cn4ccnc4)(c4ccc(Cl)cc4Cl)O3)cc2)CC1 (stereo unspecified) [KETOCONAZOLE],Stability,[1],Unstable
C#C[C@]1(O)CC[C@H]2[C@@H]3CCc4cc(OC)ccc4[C@H]3CC[C@@]21C [MESTRANOL],IC50 shift at 0.5 h,[4]; probe diethoxyfluorescein,> 5
same,IC50 shift at 0.5 h,[5]; probe 7-benzyloxyquinoline,> 5
same,Stability,[7],Unstable
Oc1ccc2c(c1)[C@@]13CCCC[C@@]1(O)[C@@H](C2)N(CC1CCC1)CC3 [BUTORPHANOL],IC50 shift at 0.5 h,[8]; [10],< 2
same,Stability,[3],Stable
CS(=O)(=O)Nc1ccc([N+](=O)[O-])cc1Oc1ccccc1 [NIMESULIDE],IC50 shift at 0.5 h,[4],2
same,IC50 shift at 0.5 h,[5],< 2
same,Stability,[1],Unstable
C[C@H]1[C@H](c2ccccc2)OCCN1C [PHENDIMETRAZINE],Stability,[1],Unstable
CN1CCC[C@@H]1CCO[C@](C)(c1ccccc1)c1ccc(Cl)cc1 [CLEMASTINE],IC50 shift at 0.5 h,[2],< 2
same,IC50 shift at 0.5 h,[4],2
same,IC50 shift at 0.5 h,[5],> 5
same,Stability,[3],Stable
CN1CCN(CCCN2c3ccccc3Sc3ccc(Cl)cc32)CC1 [PROCHLORPERAZINE],Stability,[1],Unstable
C[C@](N)(Cc1ccc(O)c(O)c1)C(=O)O [METHYLDOPA],Stability,[1],Unstable
O=C(OCC(O)CO)c1ccccc1Nc1ccnc2cc(Cl)ccc12 (stereo unspecified) [GLAFENINE],Stability,[1],Unstable
CC/C(=C(/CC)c1ccc(O)cc1)c1ccc(O)cc1 [DIETHYLSTILBESTROL],IC50 shift at 0.5 h,[9],2
same,Stability,[6],Unstable
Cc1cccc(C)c1NC(=O)C1CCCCN1C (stereo unspecified) [MEPIVACAINE],IC50 shift at 0.5 h,[4]; probe diethoxyfluorescein,2
same,IC50 shift at 0.5 h,[5]; probe 7-benzyloxyquinoline,2
same,Stability,[3],Stable
C[N+]1(C)[C@@H]2CC[C@H]1C[C@@H](OC(=O)C(O)c1ccccc1)C2 (stereo partly specified) [HOMATROPINE METHYLBROMIDE],IC50 shift at 0.5 h,[8]; [10],< 2
Nc1ccc(S(=O)(=O)Nc2ccnn2-c2ccccc2)cc1 [SULFAPHENAZOLE],Stability,[1],Unstable
Clc1ccccc1C(c1ccccc1)(c1ccccc1)n1ccnc1 [CLOTRIMAZOLE],IC50 shift at 0.5 h,[9],2
same,IC50 shift at 0.5 h,[8],< 2
same,Stability,[3],Stable
CN(C)CCC=C1c2ccccc2CCc2ccccc21 [AMITRIPTYLINE],IC50 shift at 0.5 h,[2]; [11],< 2
same,Stability,[6],Unstable
CCOC(=O)n1ccn(C)c1=S [CARBIMAZOLE],IC50 shift at 0.5 h,[8],> 5
same,IC50 shift at 0.5 h,[4],> 5
same,IC50 shift at 0.5 h,[5],> 5
same,Stability,[6],Unstable
C[C@@H]1[C@H](O)[C@@H](C)/C=C/C=C/C=C/C=C/C=C/C=C/C=C/[C@H](O[C@@H]2O[C@H](C)[C@@H](O)[C@H](N)[C@@H]2O)C[C@@H]2O[C@](O)(C[C@@H](O)C[C@@H](O)[C@H](O)CC[C@@H](O)C[C@@H](O)CC(=O)O[C@H]1C)C[C@H](O)[C@H]2C(=O)O [AMPHOTERICIN B],IC50 shift at 0.5 h,[2]; [11],< 2
same,Stability,[3],Stable
CN(C)C(=O)Oc1ccc[n+](C)c1 [PYRIDOSTIGMINE],IC50 shift at 0.5 h,[2],2
same,Stability,[6],Unstable
C#C[C@]1(O)CC[C@H]2[C@@H]3CCC4=Cc5oncc5C[C@]4(C)[C@H]3CC[C@@]21C [DANAZOL],IC50 shift at 0.5 h,[2],< 2
same,Stability,[7],Unstable
CC(c1cc2ccccc2s1)N(O)C(N)=O (stereo unspecified) [ZILEUTON],IC50 shift at 0.5 h,[9]; probe ethoxyresorufin,> 5
same,Stability,[3],Stable
COc1cc2c(c(OC)c1OC)-c1ccc(OC)c(=O)cc1[C@@H](NC(C)=O)CC2 [COLCHICINE],Stability,[1],Unstable
Nc1ccc(S(=O)(=O)c2ccc(N)cc2)cc1 [DAPSONE],Stability,[1],Unstable
O=C(O)c1cc(/N=N/c2ccc(S(=O)(=O)Nc3ccccn3)cc2)ccc1O [SULFASALAZINE],IC50 shift at 0.5 h,[2]; [11],< 2
same,Stability,[3],Stable
Cc1cccc(CN2CCN(C(c3ccccc3)c3ccc(Cl)cc3)CC2)c1 (stereo unspecified) [MECLIZINE],IC50 shift at 0.5 h,[2]; [11],> 5
same,IC50 shift at 0.5 h,[4]; probe diethoxyfluorescein,2
same,IC50 shift at 0.5 h,[5]; probe 7-benzyloxyquinoline,> 5
same,Stability,[3],Stable
COc1ccc2[nH]c([S+]([O-])Cc3ncc(C)c(OC)c3C)nc2c1 (stereo unspecified) [OMEPRAZOLE],IC50 shift at 0.5 h,[2],< 2
same,IC50 shift at 0.5 h,[4],2
same,Stability,[6],Unstable
CC1(C)[C@@H](O)CC[C@]2(C)[C@H]3C(=O)C=C4[C@@H]5C[C@@](C)(C(=O)O)CC[C@]5(C)CC[C@@]4(C)[C@]3(C)CC[C@@H]12 [ENOXOLONE],IC50 shift at 0.5 h,[9]; probe ethoxyresorufin,2
same,Stability,[3],Stable
C#C[C@]1(O)CC[C@H]2[C@@H]3CCc4cc(O)ccc4[C@H]3CC[C@@]21C [ETHINYL ESTRADIOL],IC50 shift at 0.5 h,[4]; probe diethoxyfluorescein,2
same,IC50 shift at 0.5 h,[5]; probe 7-benzyloxyquinoline,2
same,Stability,[6],Unstable
Cc1cc(C(C)(C)C)c(O)c(C(C)(C)C)c1 [BUTYLATED HYDROXYTOLUENE],Stability,[1],Unstable
CNC1(C)C2CCC(C2)C1(C)C (stereo unspecified) [MECAMYLAMINE],IC50 shift at 0.5 h,[2],< 2
same,Stability,[3],Stable
CC[C@H]1OC(=O)[C@H](C)[C@@H](O[C@H]2C[C@@](C)(OC)[C@@H](O)[C@H](C)O2)[C@H](C)[C@@H](O[C@@H]2O[C@H](C)C[C@H](N(C)C)[C@H]2O)[C@](C)(OC)C[C@@H](C)C(=O)[C@H](C)[C@@H](O)[C@]1(C)O [CLARITHROMYCIN],IC50 shift at 0.5 h,[4]; probe diethoxyfluorescein,> 5
same,IC50 shift at 0.5 h,[5]; probe 7-benzyloxyquinoline,> 5
same,Stability,[3],Stable
N[C@@H](Cc1cc(I)c(Oc2ccc(O)c(I)c2)c(I)c1)C(=O)O [LIOTHYRONINE],Stability,[1],Unstable
COc1cc(C(=O)NS(=O)(=O)c2ccccc2C)ccc1Cc1cn(C)c2ccc(NC(=O)OC3CCCC3)cc12 [ZAFIRLUKAST],IC50 shift at 0.5 h,[4]; probe diethoxyfluorescein,> 5
same,IC50 shift at 0.5 h,[5]; probe 7-benzyloxyquinoline,2
COc1ccccc1OCC(O)COC(N)=O (stereo unspecified) [METHOCARBAMOL],IC50 shift at 0.5 h,[2]; [11],< 2
same,Stability,[3],Stable
CCN(CC)CCNc1ccc(CO)c2sc3ccccc3c(=O)c12 [HYCANTHONE],IC50 shift at 0.5 h,[9],> 5
same,IC50 shift at 0.5 h,[4],2
same,Stability,[6],Unstable
